Data reported in patent publication US8802597B2, “Herbicidal pyrimidines” (E I du Pont de Nemours and Company, priority 2003, dated 2014).

What was measured:
Format in all cases: in vivo
soybean (Glycine max) = test: Test C pre/postemergence; details: for Soybean plant response rating: scale 0 to 100 (0 no effect, 100 complete control)
Outline: (§1)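 Test compounds, formulated in a non-phytotoxic solvent mix with surfactant, were applied to freshly planted seeds and, at the same time, to emerged plants at 1- to 4-leaf stage (2 to 18 cm). After 12 to 14 days in the greenhouse, response was scored visually versus controls, 0 = no effect, 100 = complete control.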

[1] = test system: common (oilseed) sunflower (Helianthus annuus); test: Test C pre/postemergence; details: Preemergence
Outline: as §1

[2] = test system: Surinam grass (Brachiaria decumbens); test: Test C pre/postemergence; details: for Surinam Grass plant response rating: scale 0 to 100 (0 no effect, 100 complete control)
Outline: as §1

[3] = test system: common ragweed (Ambrosia elatior); test: Test C pre/postemergence; details: for Ragweed plant response rating: scale 0 to 100 (0 no effect, 100 complete control)
Outline: as §1

[4] = test system: yellow nutsedge (Cyperus esculentus); test: Test C pre/postemergence; details: for Nutsedge, Yellow plant response rating: scale 0 to 100 (0 no effect, 100 complete control)
Outline: as §1

kochia (Kochia scoparia) = test: Test C pre/postemergence; details: for Kochia plant response rating: scale 0 to 100 (0 no effect, 100 complete control)
Outline: as §1

[5] = test system: johnsongrass (Sorghum halepense); test: Test C pre/postemergence; details: for Johnsongrass plant response rating: scale 0 to 100 (0 no effect, 100 complete control)
Outline: as §1

[6] = test system: woolly cupgrass (Eriochloa villosa); test: Test C pre/postemergence; details: for Cupgrass, Woolly plant response rating: scale 0 to 100 (0 no effect, 100 complete control)
Outline: as §1

[7] = test system: giant foxtail (Setaria faberii); test: Test C pre/postemergence; details: for Foxtail, Giant plant response rating: scale 0 to 100 (0 no effect, 100 complete control)
Outline: as §1

[8] = test system: pigweed (Amaranthus retroflexus); test: Test C pre/postemergence; details: for Pigweed plant response rating: scale 0 to 100 (0 no effect, 100 complete control)
Outline: as §1

[9] = test system: morningglory (Ipomoea coccinea); test: Test C pre/postemergence; details: for Morningglory plant response rating: scale 0 to 100 (0 no effect, 100 complete control)
Outline: as §1

[10] = test system: chickweed (Stellaria media); test: Test C postemergence; details: for Chickweed plant response rating: scale 0 to 100 (0 no effect, 100 complete control); for Plant response rating, Chickweed: scale 0 to 100
Outline: as §1

[11] = Postemergence, 250 g ai/ha, scale 0 to 100
[12] = Postemergence, 500 g ai/ha, scale 0 to 100
[13] = Preemergence, 62 g ai/ha, scale 0 to 100, 0 no effect, 100 complete control
[14] = Preemergence, 125 g ai/ha, scale 0 to 100
[15] = Preemergence, 250 g ai/ha, scale 0 to 100
[16] = Preemergence, 500 g ai/ha, scale 0 to 100

Nc1nc(C2CC2)nc(C=NO)c1Br [Compound 27]
Soybean plant response rating (soybean (Glycine max); Postemergence, 62 g ai/ha): 30 | Soybean plant response rating (soybean (Glycine max); Postemergence, 125 g ai/ha): 45 | Plant response rating, Soybean (soybean (Glycine max); [11]): 85 | Plant response rating, Soybean (soybean (Glycine max); [12]): 95 | Plant response rating, Soybean (soybean (Glycine max); [13]): 0 | Plant response rating, Soybean (soybean (Glycine max); [14]): 0 | Plant response rating, Soybean (soybean (Glycine max); [15]): 20 | Plant response rating, Soybean (soybean (Glycine max); [16]): 75 | Plant response rating, Sunflower ([1]; 62 g ai/ha, scale 0 to 100, 0 no effect, 100 complete control): 0 | Plant response rating, Sunflower ([1]; 125 g ai/ha, scale 0 to 100): 20 | Plant response rating, Sunflower ([1]; 250 g ai/ha, scale 0 to 100): 90 | Plant response rating, Sunflower ([1]; 500 g ai/ha, scale 0 to 100): 95 | Surinam Grass plant response rating ([2]; Postemergence, 62 g ai/ha): 0 | Surinam Grass plant response rating ([2]; Postemergence, 125 g ai/ha): 0 | Plant response rating, Surinam Grass [2, 11]: 0 | Plant response rating, Surinam Grass [2, 12]: 0 | Plant response rating, Surinam Grass [2, 13]: 0 | Plant response rating, Surinam Grass [2, 14]: 0 | Plant response rating, Surinam Grass [2, 15]: 20 | Plant response rating, Surinam Grass [2, 16]: 30 | Ragweed plant response rating ([3]; Postemergence, 62 g ai/ha): 5 | Ragweed plant response rating ([3]; Postemergence, 125 g ai/ha): 20 | Plant response rating, Ragweed [3, 11]: 40 | Plant response rating, Ragweed [3, 12]: 50 | Plant response rating, Ragweed [3, 13]: 20 | Plant response rating, Ragweed [3, 14]: 65 | Plant response rating, Ragweed [3, 15]: 85 | Plant response rating, Ragweed [3, 16]: 95 | Nutsedge, Yellow plant response rating ([4]; Postemergence, 62 g ai/ha): 0 | Nutsedge, Yellow plant response rating ([4]; Postemergence, 125 g ai/ha): 0 | Plant response rating, Nutsedge, Yellow [4, 11]: 0 | Plant response rating, Nutsedge, Yellow [4, 12]: 0 | Plant response rating, Nutsedge, Yellow [4, 13]: 0 | Plant response rating, Nutsedge, Yellow [4, 14]: 0 | Plant response rating, Nutsedge, Yellow [4, 15]: 0 | Plant response rating, Nutsedge, Yellow [4, 16]: 20 | Kochia plant response rating (kochia (Kochia scoparia); Postemergence, 62 g ai/ha): 0 | Kochia plant response rating (kochia (Kochia scoparia); Postemergence, 125 g ai/ha): 20 | Plant response rating, Kochia (kochia (Kochia scoparia); [11]): 50 | Plant response rating, Kochia (kochia (Kochia scoparia); [12]): 60 | Plant response rating, Kochia (kochia (Kochia scoparia); [13]): 0 | Plant response rating, Kochia (kochia (Kochia scoparia); [14]): 0 | Plant response rating, Kochia (kochia (Kochia scoparia); [15]): 30 | Plant response rating, Kochia (kochia (Kochia scoparia); [16]): 45 | Johnsongrass plant response rating ([5]; Postemergence, 62 g ai/ha): 0 | Johnsongrass plant response rating ([5]; Postemergence, 125 g ai/ha): 0 | Plant response rating, Johnsongrass [5, 11]: 0 | Plant response rating, Johnsongrass [5, 12]: 0 | Plant response rating, Johnsongrass [5, 13]: 0 | Plant response rating, Johnsongrass [5, 14]: 20 | Plant response rating, Johnsongrass [5, 15]: 45 | Plant response rating, Johnsongrass [5, 16]: 65 | Cupgrass, Woolly plant response rating ([6]; Postemergence, 62 g ai/ha): 0 | Cupgrass, Woolly plant response rating ([6]; Postemergence, 125 g ai/ha): 0 | Plant response rating, Cupgrass, Woolly [6, 11]: 0 | Plant response rating, Cupgrass, Woolly [6, 12]: 0 | Plant response rating, Cupgrass, Woolly [6, 13]: 0 | Plant response rating, Cupgrass, Woolly [6, 14]: 0 | Plant response rating, Cupgrass, Woolly [6, 15]: 10 | Plant response rating, Cupgrass, Woolly [6, 16]: 15 | Foxtail, Giant plant response rating ([7]; Postemergence, 62 g ai/ha): 0 | Foxtail, Giant plant response rating ([7]; Postemergence, 125 g ai/ha): 0 | Plant response rating, Foxtail, Giant [7, 11]: 0 | Plant response rating, Foxtail, Giant [7, 12]: 0 | Plant response rating, Foxtail, Giant [7, 13]: 0 | Plant response rating, Foxtail, Giant [7, 14]: 0 | Plant response rating, Foxtail, Giant [7, 15]: 0 | Plant response rating, Foxtail, Giant [7, 16]: 20 | Pigweed plant response rating ([8]; Postemergence, 62 g ai/ha): 5 | Pigweed plant response rating ([8]; Postemergence, 125 g ai/ha): 20 | Plant response rating, Pigweed [8, 11]: 30 | Plant response rating, Pigweed [8, 12]: 80 | Plant response rating, Pigweed [8, 13]: 20 | Plant response rating, Pigweed [8, 14]: 80 | Plant response rating, Pigweed [8, 15]: 90 | Plant response rating, Pigweed [8, 16]: 100 | Morningglory plant response rating ([9]; Postemergence, 62 g ai/ha): 20 | Morningglory plant response rating ([9]; Postemergence, 125 g ai/ha): 85 | Plant response rating, Morningglory [9, 11]: 85 | Plant response rating, Morningglory [9, 12]: 85 | Plant response rating, Morningglory [9, 13]: 0 | Plant response rating, Morningglory [9, 14]: 70 | Plant response rating, Morningglory [9, 15]: 95 | Plant response rating, Morningglory [9, 16]: 100 | Chickweed plant response rating ([10]; 62 g ai/ha): 0 | Chickweed plant response rating ([10]; 125 g ai/ha): 0 | Plant response rating, Chickweed ([10]; 250 g ai/ha): 0 | Plant response rating, Chickweed ([10]; 500 g ai/ha): 0
